# Columns and labels:
# [1] = target: T1, IRAK4 (human purified recombinant enzyme His-TEV-IRAK4 (1-460)) (Homo sapiens, UniProt Q9NWZ3); assay: IRAK4 enzymatic assay (ADP-Glo luminescence); assay type: biochemical; details: human recombinant IRAK4, ATP 2 μM, STK1-biotin peptide
# T1 construct: His-TEV-IRAK4 (1-460); His (N); TEV cleavage site (N)
# T1 sequence (Q9NWZ3 1-460): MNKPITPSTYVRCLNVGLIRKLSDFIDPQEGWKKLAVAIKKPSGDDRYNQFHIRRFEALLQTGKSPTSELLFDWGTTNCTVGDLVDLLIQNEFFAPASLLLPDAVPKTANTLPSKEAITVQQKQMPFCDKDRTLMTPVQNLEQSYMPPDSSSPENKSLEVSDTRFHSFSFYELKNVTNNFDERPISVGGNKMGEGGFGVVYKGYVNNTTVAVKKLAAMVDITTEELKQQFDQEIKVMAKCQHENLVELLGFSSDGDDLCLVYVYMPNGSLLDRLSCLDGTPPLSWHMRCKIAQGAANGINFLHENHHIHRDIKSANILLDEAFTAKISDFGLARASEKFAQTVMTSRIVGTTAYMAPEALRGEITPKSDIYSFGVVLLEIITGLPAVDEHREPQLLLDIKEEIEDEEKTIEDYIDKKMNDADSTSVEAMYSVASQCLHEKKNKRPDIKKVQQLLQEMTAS
# Procedure: IRAK4 is a human purified recombinant enzyme (His-TEV-IRAK4 (1-460)). In this assay, IRAK4 hydrolysed ATP, autophosphorylated and phosphorylated a Serine/Threonine generic peptidic substrate (STK: 61ST1BLC from CisBio International). Measurement of IRAK-4 inhibition was performed in 384-well format based on a luminescence assay (ADP-Glo™ Kinase Assay from Promega). Purified human recombinant IRAK4 (0.3 μg/ml) and serial diluted compounds in DMSO (range of concentration from 10 μM to 0.5 nM) or controls (1% DMSO) were incubated for 15 minutes at RT in assay buffer containing 50 mM Hepes pH 7.0, Fatty acid-free BSA 0.1%, Dithiothreitol (DTT) 2 mM, MgCl2 10 mM, EGTA 0.5 mM, Triton X-100 0.01%, MnCl2 5 mM. The kinase reaction was then initiated by the addition of ATP (2 μM) and the peptidic substrate STK1-biotin peptide (300 nM). After 2 hours of incubation at RT, the reaction was stopped and the unconsumed ATP depleted by the addition of ADP-Glo™ Reagent according to supplier instructions. After 40 minutes of incubation at RT, the Kinase Detection Reagent was then added to the assay plate according to supplier instructions. After 20 minutes of incubation at RT, the luminescence signal was measured with a plate-reading luminometer (PerkinElmer Envision or equivalent reader).
# [2] = target: T2, IRAK1 (human purified recombinant enzyme His-TEV-IRAK1 (194-712)) (Homo sapiens, UniProt P51617); assay: IRAK1 enzymatic assay (ADP-Glo luminescence); assay type: biochemical; details: human recombinant IRAK1, ATP 1 μM
# T2 construct: His-TEV-IRAK1 (194-712); His (N); TEV cleavage site (N)
# T2 sequence (P51617 194-712): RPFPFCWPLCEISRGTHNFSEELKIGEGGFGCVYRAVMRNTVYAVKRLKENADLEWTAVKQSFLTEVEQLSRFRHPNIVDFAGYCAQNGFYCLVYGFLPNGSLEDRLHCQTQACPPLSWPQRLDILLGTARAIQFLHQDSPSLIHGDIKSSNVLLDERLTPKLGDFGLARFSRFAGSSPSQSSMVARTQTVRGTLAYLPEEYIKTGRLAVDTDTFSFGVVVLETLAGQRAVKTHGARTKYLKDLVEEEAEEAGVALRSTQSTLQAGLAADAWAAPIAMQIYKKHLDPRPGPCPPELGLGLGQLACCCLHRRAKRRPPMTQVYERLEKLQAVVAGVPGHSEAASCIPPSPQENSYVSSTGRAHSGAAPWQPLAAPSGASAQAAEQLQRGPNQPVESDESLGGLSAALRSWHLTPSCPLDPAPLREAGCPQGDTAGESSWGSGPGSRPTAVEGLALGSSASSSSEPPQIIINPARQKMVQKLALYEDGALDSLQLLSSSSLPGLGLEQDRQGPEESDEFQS
# Procedure: IRAK1 is a human purified recombinant enzyme (His-TEV-IRAK1 (194-712)). In this assay, IRAK1 hydrolysed ATP and autophosphorylated. Measurement of IRAK-1 inhibition was performed in 384-well format based on luminescence assay (ADP-Glo™ Kinase Assay from Promega). Purified human recombinant IRAK1 (0.3 μg/ml) and serial diluted compounds in DMSO (range of concentration from 10 μM to 0.5 nM) or controls (1% DMSO) were incubated for 15 minutes at RT in assay buffer containing 50 mM Hepes pH 7.0, Fatty acid-free BSA 0.1%, Dithiothreitol (DTT) 2 mM, MgCl2 10 mM, EGTA 0.5 mM, Triton X-100 0.01%. The kinase reaction was then initiated by the addition of ATP at a concentration of 1 μM. After 2 hours of incubation at RT, the reaction was stopped and the unconsumed ATP depleted by the addition of ADP-Glo™ Reagent according to supplier instructions. After 40 minutes of incubation at RT, the Kinase Detection Reagent was then added to the assay plate according to supplier instructions. After 20 minutes of incubation at RT, the luminescence signal was measured with a luminometer (PerkinElmer Envision or equivalent reader).
# [3] = test system: TLR7 induced IL-6 secretion in human mononuclear cells (PBMC's); assay: TLR7 induced IL-6 in human PBMC's; assay type: cell-based; details: TLR7 ligand 2 uM overnight, IL-6 AlphaLISA
# Procedure: TLR7 Induced IL-6 in Human PBMC's
# Human PBMC assay was used as one of the functional assays to monitor the activity of IRAK1 and IRAK4 small molecule inhibitors on TLR7 induced IL-6 secretion in human mononuclear cells (PBMC's). Human PBMCs were prepared from buffy coats (whole blood enriched with leukocytes and platelets) obtained from healthy volunteers used either fresh or frozen were plated in assay media (RPMI+2% P/S/L-glu+10% HI-FBS) and pre-treated with compounds in DMSO/media (range of concentrations from 25 uM to 0.4 nM) or controls (0.25% DMSO) for 30 minutes at 37° C. in assay media. Following pre-treatment with IRAK1 and IRAK4 inhibitors, PBMC's were stimulated with TLR7 specific ligand (2 uM) overnight (16-18 hrs) at 37° C. After incubation supernatant was transferred to 384 well PE AlphaPlate-384 and IL-6 was quantified using Perkin Elmer IL-6 Alpha LISA kit (AL223C). Plates were read on an Envision® plate reader with Alpha Technology®.
smiles,measurement,setting,value
"Cc1ccc(-n2nc(C(C)(C)C)cc2NC(=O)N[C@H]2CC[C@@H](c3cn(C)c4ncnc(N)c43)CC2)cc1 [Example 27, 3-[3-tert-butyl-1-(4-methylphenyl)-1H-pyrazol-5-yl]-1-[(1s,4s)-4-{4-amino-7-methyl-7H-pyrrolo[2,3-d]pyrimidin-5-yl}cyclohexyl]urea]",melting point,,228 to 230 °C
same,IC50,[1],1000 to 5000 nM
same,IC50,[2],100 to 1000 nM
"Cc1ccc(-n2nc(C(C)(C)CO)cc2NC(=O)Nc2ccc(-c3nn(C)c4ncnc(N)c34)cc2Cl)cc1 [Example 17, 1-(4-{4-amino-1-methyl-1H-pyrazolo[3,4-d]pyrimidin-3-yl}-2-chlorophenyl)-3-[3-(1-hydroxy-2-methylpropan-2-yl)-1-(4-methylphenyl)-1H-pyrazol-5-yl]urea]",melting point,,192 to 194 °C
same,IC50,[3],< 100 nM
same,IC50,[1],1000 to 5000 nM
same,IC50,[2],< 100 nM
"CC(C)c1ccc(-n2nc(C(C)(C)C)cc2NC(=O)Cc2ccc(-c3nn(C)c4ncnc(N)c34)cc2)cc1 [Example 15, 2-[4-(4-Amino-1-methyl-1H-pyrazolo[3,4-d]pyrimidin-3-yl)-phenyl]-N-[5-tert-butyl-2-(4-isopropyl-phenyl)-2H-pyrazol-3-yl]-acetamide]",IC50,[3],1000 to 5000 nM
same,IC50,[1],1000 to 5000 nM
same,IC50,[2],< 100 nM
"CC(C)c1ccc(-n2nc(C(C)(C)C)cc2NC(=O)Cc2ccc(-c3nn(C)c4ncnc(N)c34)cc2F)cc1 [Example 16, 2-[4-(4-Amino-1-methyl-1H-pyrazolo[3,4-d]pyrimidin-3-yl)-2-fluoro-phenyl]-N-[5-tert-butyl-2-(4-isopropyl-phenyl)-2H-pyrazol-3-yl]-acetamide]",IC50,[3],1000 to 5000 nM
same,IC50,[1],100 to 1000 nM
same,IC50,[2],< 100 nM
"Cc1ccc(-n2nc(C(C)(C)CO)cc2NC(=O)Nc2ccc(-c3csc4ncnc(N)c34)cc2Cl)cc1 [Example 21, 1-(4-{4-aminothieno[2,3-d]pyrimidin-5-yl}-2-chlorophenyl)-3-[3-(1-hydroxy-2-methylpropan-2-yl)-1-(4-methylphenyl)-1H-pyrazol-5-yl]urea]",IC50,[3],> 5000 nM
same,IC50,[1],> 5000 nM
same,IC50,[2],100 to 1000 nM
"Cc1ccc(-n2nc(C3(C)COC3)cc2NC(=O)Nc2ccc(-c3nn(C)c4ncnc(N)c34)cc2Cl)cc1 [Example 18, 1-(4-{4-amino-1-methyl-1H-pyrazolo[3,4-d]pyrimidin-3-yl}-2-chlorophenyl)-3-[3-(3-methyloxetan-3-yl)-1-(4-methylphenyl)-1H-pyrazol-5-yl]urea]",melting point,,170 to 172 °C
same,IC50,[3],100 to 1000 nM
same,IC50,[1],1000 to 5000 nM
same,IC50,[2],< 100 nM
"Cc1ccc(-n2nc(C(C)(C)C)cc2NC(=O)Nc2ccc(-c3nn(C)c4ncnc(N)c34)cc2F)cc1 [Example 4, 1-[4-(4-Amino-1-methyl-1H-pyrazolo[3,4-d]pyrimidin-3-yl)-2-fluoro-phenyl]-3-(5-tert-butyl-2-p-tolyl-2H-pyrazol-3-yl)-urea]",IC50,[3],< 100 nM
same,IC50,[1],< 100 nM
same,IC50,[2],< 100 nM
"Cc1ccc(-n2nc(C(C)(C)C)cc2NC(=O)Nc2ccc(-c3nn(C)c4ncnc(N)c34)cc2Cl)cc1 [Example 5, 1-[4-(4-Amino-1-methyl-1H-pyrazolo[3,4-d]pyrimidin-3-yl)-2-chloro-phenyl]-3-(5-tert-butyl-2-p-tolyl-2H-pyrazol-3-yl)-urea]",IC50,[3],< 100 nM
same,IC50,[1],< 100 nM
same,IC50,[2],< 100 nM
"Cc1ccc(-n2nc(C(C)(C)C)cc2NC(=O)Nc2ccc(-c3csc4ncnc(N)c34)c(Cl)c2)cc1 [Example 10, 1-[4-(4-Amino-thieno[2,3-d]pyrimidin-5-yl)-3-chloro-phenyl]-3-(5-tert-butyl-2-p-tolyl-2H-pyrazol-3-yl)-urea]",IC50,[3],< 100 nM
same,IC50,[1],100 to 1000 nM
same,IC50,[2],< 100 nM
"Cc1ccc(-n2nc(C(C)(C)C)cc2NC(=O)Nc2ccc(-c3nn(C)c4ncnc(N)c34)c(Cl)c2)cc1 [Example 8, 1-[4-(4-Amino-1-methyl-1H-pyrazolo[3,4-d]pyrimidin-3-yl)-3-chloro-phenyl]-3-(5-tert-butyl-2-p-tolyl-2H-pyrazol-3-yl)-urea]",IC50,[3],< 100 nM
same,IC50,[1],< 100 nM
same,IC50,[2],< 100 nM
"Cc1ccc(-n2nc(C(C)(C)C)cc2NC(=O)Nc2ccc(-c3csc4ncnc(N)c34)cc2F)cc1 [Example 7, 1-[4-(4-Amino-thieno[2,3-d]pyrimidin-5-yl)-2-fluoro-phenyl]-3-(5-tert-butyl-2-p-tolyl-2H-pyrazol-3-yl)-urea]",IC50,[3],< 100 nM
same,IC50,[1],< 100 nM
same,IC50,[2],< 100 nM
"Cc1ccc(-n2nc(C(F)(F)F)cc2NC(=O)Nc2ccc(-c3nn(C)c4ncnc(N)c34)c(F)c2)cc1 [Example 13, 1-[4-(4-Amino-1-methyl-1H-pyrazolo[3,4-d]pyrimidin-3-yl)-3-fluoro-phenyl]-3-(2-p-tolyl-5-trifluoromethyl-2H-pyrazol-3-yl)-urea]",IC50,[3],100 to 1000 nM
same,IC50,[1],> 5000 nM
same,IC50,[2],100 to 1000 nM

# Source: patent US11873303B2, “Substituted pyrazoles as type II IRAK inhibitors” (Merck Patent GmbH, priority 2018, dated 2024)
